Experimental data reported in US8058243B2, “Method for treating a brain cancer with ifenprodil” (HSC Research and Development Limited Partnership, priority 2006, dated 2011).
Structures can show the parent of a compound that is named as a salt. Where two headings read alike, the source gives them in different places.

Test system: murine neural precursor cells (neurosphere cultures)
Assay: HTS of LOPAC library against secondary neurosphere cultures, MTT proliferation assay at 3 μM, day 7 (z score, P value)
Format: cell-based, mouse
[1] = LOPAC primary screen, neurosphere MTT proliferation, 3 μM, day 7
[2] = yes/no: significantly inhibited neurosphere proliferation (P<0.01) in primary screen
[3] = yes = significantly inhibited neurosphere proliferation (P<0.01) in the primary screen
[4] = yes/no: significantly inhibited neurosphere proliferation in primary screen
[5] = yes/no: significantly inhibited neurosphere proliferation (P<0.01) in the primary screen
[6] = primary LOPAC screen, 3 μM, MTT, neurosphere proliferation
[7] = LOPAC screen, neurosphere MTT proliferation, 3 μM, day 7
[8] = yes/no: significantly inhibited neurosphere proliferation in the primary screen
[9] = LOPAC library screen at 3 μM, secondary neurosphere cultures, MTT
[10] = LOPAC library screen, 3 μM, MTT, neurosphere cultures
[11] = LOPAC library screen, 3 μM, MTT, secondary neurosphere cultures, day 7

For `N[C@H](C(=O)O)c1cc(O)no1` (racemic) [(±)-Ibotenic acid], which Z score [1] is on record?
Its Z score is −1.650.

What about the Activity [2] of the same molecule?
The Activity was “no”.

`CC(C)Cc1ccc(C(C)C(=O)O)cc1` (racemic) [(±)-Ibuprofen] was tested. Which Z score [1] did it give?
Its Z score is −0.262.

What about the Activity [2] of the same molecule?
Its Activity is “no”.

How did the Z score [1] turn out when `CC(C)NCC(O)c1ccc(O)c(O)c1.Cl` (racemic) [(±)-Isopoterenol hydrochloride] was run?
Its Z score is −0.572.

And the Activity [2]?
The Activity was “no”.

For `COc1ccc(CCN(C)CCCC(C#N)(c2cc(OC)c(OC)c(OC)c2)C(C)C)cc1OC.Cl` (racemic) [(±)-Methoxyverapamil hydrochloride], which Z score [1] is on record?
Its Z score is −1.407.

What about the Activity [3] of the same molecule?
Its Activity is “no”.

Which results are given for `COCCc1ccc(OCC(O)CNC(C)C)cc1.O=C(O)C(O)C(O)C(=O)O` (racemic) [(±)-Metoprolol (+)-tartate]?
Z score [1]: −0.269; Activity [3]: no

How did the Z score [1] turn out when `C[C@@H]1O[C@H](C[N+](C)(C)C)C[C@H]1O.[Cl-]` (racemic) [(±)-Muscarine chloride] was run?
Its Z score is −1.905.

What about the Activity [3] of the same molecule?
Its Activity is “no”.

Which Z score does the source give for `O=C(O)C1CCCNC1` (racemic) [(±)-Nipecotic acid] here?
Its Z score is −0.722.

Which results are given for `NC[C@H](O)c1ccc(O)c(O)c1.O=C(O)C(O)C(O)C(=O)O` (racemic) [(±)-Norepinephrine (+)bitartrate]?
Z score [1]: 0.099; Activity [4]: no

How did the Z score [1] turn out when `COc1cc(C(O)CN)ccc1O.Cl` (racemic) [(±)-Normetanephrine hydrochlodride] was run?
Its Z score is −1.796.

And the Activity [3]?
Its Activity is “no”.

For `CN1CCN(C2Cc3ccccc3Sc3ccc(Cl)cc32)CC1.O=C(O)/C=C\C(=O)O` (racemic) [(±)-Octoclothepin maleate], which Z score [1] is on record?
The Z score was 1.473.

What about the Activity [5] of the same molecule?
Its Activity is “no”.

For `Cl.NCC(O)c1ccc(O)cc1` (racemic) [(±)-Octopamine hydrochloride], which Z score [1] is on record?
The Z score was −1.567.

What about the Activity [4] of the same molecule?
The Activity was “no”.

Which results are given for `CCCN1CCOC2c3cc(O)ccc3OCC21.Cl` (racemic) [(±)-PD 128,907 hydrochloride]?
Z score [1]: 1.164; Activity [4]: no

How did the Z score [1] turn out when `CCCN(CCc1ccccc1)C1CCc2c(O)cccc2C1.Cl` (racemic) [(±)-PPHT hydrochloride] was run?
The Z score was −1.915.

What about the Activity [5] of the same molecule?
Its Activity is “no”.

Which Z score [1] does the source give for `CC(C)NCC(O)COc1cccc2ccccc12.Cl` (racemic) [(±)-Propranolol hydrochloride] here?
The Z score was 0.357.

What about the Activity [4] of the same molecule?
The Activity was “no”.

Which Activity does the source give for `Br.C=CCN1CCc2cc(O)c(O)cc2C(c2ccccc2)C1` (racemic) [(±)-SKF 38393, N-allyl-, hydrobromide] here?
The Activity was “no”.

And the Z score [6]?
Its Z score is −1.590.

What does the source list for `Cl.Oc1cc2c(cc1O)C(c1ccccc1)CNCC2` (racemic) [(±)-SKF-38393 hydrochloride]?
Activity: no; Z score [7]: 1.280

What does the source list for `CC(C)NCC(O)c1ccc(NS(C)(=O)=O)cc1.Cl` (racemic) [(±)-Sotalol hydrochloride]?
Z score [1]: −0.813; Activity [4]: no

Which Z score [1] does the source give for `CNCC(O)c1ccc(O)cc1` (racemic) [(±)-Synephrine] here?
The Z score was −0.149.

And the Activity [4]?
Its Activity is “no”.

Which results are given for `O=C1c2c(O)cc(O)cc2O[C@H](c2ccc(O)c(O)c2)[C@H]1O` (racemic) [(±)-Taxifolin]?
Z score (168 h, 3 µM): 1.321; Activity [8]: no

Which results are given for `O=C1CCC(N2C(=O)c3ccccc3C2=O)C(=O)N1` (racemic) [(±)-Thalidomide]?
Z score [6]: 0.521; Activity [8]: no

How did the Z score (168 h, 3 µM) turn out when `COc1cc(C(O)C(=O)O)ccc1O` (racemic) [(±)-Vanillylmandelic acid] was run?
Its Z score is −1.811.

And the Activity [2]?
Its Activity is “no”.

Which Z score [6] does the source give for `Cl.OC1CCCCC1N1CCC(c2ccccc2)CC1` (racemic) [(±)-Vesamicol hydrochloride] here?
The Z score was −1.967.

And the Activity [8]?
Its Activity is “no”.

For `O=C(O)CCCCC1CCSS1` (racemic) [(±)-alpha-Lipoic Acid], which Z score [1] is on record?
Its Z score is 0.342.

And the Activity [4]?
The Activity was “no”.

`CC(N)(C(=O)O)c1ccc(C(=O)O)cc1` (racemic) [(±)-alpha-Methyl-4-carboxyphenylglycine] was tested. Which Z score [1] did it give?
The Z score was 0.727.

What about the Activity [3] of the same molecule?
Its Activity is “no”.

Which results are given for `O=C(O)[C@H]1CCCN[C@H]1C(=O)O` (racemic) [(±)-cis-Piperidine-2,3-dicarboxylic acid]?
Z score (168 h, 3 µM): 0.155; Activity [4]: no

How did the Z score [6] turn out when `C=CC(N)CCC(=O)O` (racemic) [(±)-gamma-Vinyl GABA] was run?
The Z score was −0.701.

And the Activity [8]?
Its Activity is “no”.

For `CCC1(c2ccc(N)cc2)CCC(=O)NC1=O` (racemic) [(±)-p-Aminoglutethimide], which Activity is on record?
Its Activity is “no”.

And the Z score [6]?
Its Z score is −0.444.

What does the source list for `NC(Cc1ccc(Cl)cc1)C(=O)O` (racemic) [(±)-p-Chlorophenylalanine]?
Z score [7]: −0.247; Activity [2]: no

What does the source list for `CCCCS(=N)(=O)CCC(N)C(=O)O` (racemic) [DL-Buthionine-[S,R]-sulfoximine]?
Z Score [9]: −1.022; Z score [7]: −1.022; Activity [2]: no

What does the source list for `N[C@@H]1CONC1=O` (racemic) [DL-Cycloserine]?
Z Score [9]: −0.2986; Z score [7]: −0.299; Activity [2]: no

With `CCCCCCCCCCCCCCCCCC(=O)OC(CC(=O)O)C[N+](C)(C)C.[Cl-]` (racemic) [DL-Stearoylcarnitine chloride] as the molecule, how does the “Z Score” value read?
Its value is 0.6378.

And the Z score [1]?
The Z score was 0.638.

What about the Activity [4] of the same molecule?
Its Activity is “no”.

What does the source list for `O=C(O)CNC(=O)C(CS)Cc1ccccc1` (racemic) [DL-Thiorphan]?
Z Score [9]: −0.3116; Z score [1]: −0.312; Activity [4]: no

With `CC(N)(Cc1ccc(O)cc1)C(=O)O` (racemic) [DL-alpha-Methyl-p-tyrosine] as the molecule, how does the “Z Score” value read?
Its value is −3.908.

What about the Z score [1] of the same molecule?
Its Z score is −3.908.

And the Activity [5]?
Its Activity is “yes”.

Which results are given for `CCCCCCCCCCCCCCC[C@H](O)[C@H](N)CO` (racemic) [DL-erythro-Dihydrosphingosine]?
Z Score [10]: −0.0785; Z score [7]: −0.079; Activity [2]: no

Which results are given for `COC(=O)C(N)Cc1ccc(Cl)cc1.Cl` (racemic) [DL-p-Chlorophenylalanine methyl ester hydrochloride]?
Z Score: 0.1276; Z score [7]: 0.128; Activity [2]: no

With `NC(C(=O)O)C(O)C(=O)O` (racemic) [DL-threo-beta-hydroxyaspartic acid] as the molecule, how does the “Z Score” value read?
The value was −0.5215.

And the Z score [1]?
The Z score was −0.522.

What about the Activity [2] of the same molecule?
The Activity was “no”.

Which results are given for `Oc1cc2c(cc1O)[C@H]1c3ccccc3CN[C@@H]1CC2` (racemic) [Dihydrexidine hydrochloride]?
Z Score [9]: −0.4153; Z score [7]: −0.415; Activity [2]: no

`COC(=O)N1CCN(C(=O)Cc2ccc(Cl)c(Cl)c2)C(CN2CCCC2)C1.O=C(O)/C=C/C(=O)O` (racemic) [GR-89696 fumarate] was tested. Which “Z Score” value did it give?
The value was −0.7788.

And the Z score [1]?
Its Z score is −0.779.

What about the Activity [5] of the same molecule?
Its Activity is “no”.

What does the source list for `NC1C=CC=C(C(=O)O)C1` (racemic) [Gabaculine hydrochloride]?
Z Score: −2.256; Z score [6]: −2.256; Activity [8]: no

For `C1CNCCN1.COc1cc(C(O)CO)ccc1O.COc1cc(C(O)CO)ccc1O` (racemic) [MHPG piperazine], which “Z Score” value [10] is on record?
Its value is 0.05276.

What about the Z score [1] of the same molecule?
Its Z score is 0.053.

What about the Activity [2] of the same molecule?
The Activity was “no”.

Which results are given for `CCCCCCCCCCCCCCCC(=O)OC(CC(=O)O)C[N+](C)(C)C.[Cl-]` (racemic) [Palmitoyl-DL-Camitine chloride]?
Z score [1]: 0.200; Activity [4]: no

`CCCCCCCCCCCCCCCC(=O)OC(CC(=O)O)C[N+](C)(C)C.[Cl-]` (racemic) [Palmitoyl-DL-Carnitine chloride] was tested. Which “Z Score” value did it give?
The value was 0.1995.

For `CCCCOc1cc(CC2CNC(=O)N2)ccc1OC` (racemic) [Ro 20-1724], which “Z Score” value is on record?
Its value is 0.5874.

And the Z score [7]?
Its Z score is 0.587.

What about the Activity [2] of the same molecule?
The Activity was “no”.

`CCN1CCC[C@H]1CNC(=O)c1c(O)c(Cl)cc(Cl)c1OC.O=C(O)C(O)C(O)C(=O)O` (racemic) [S(+)-Raclopride L-tartrate] was tested. Which “Z Score” value (LOPAC library screen at 3 μM, MTT, secondary neurosphere cultures, screened in singlets) did it give?
The value was 1.901.

And the Z score [1]?
The Z score was 1.901.

What about the Activity [5] of the same molecule?
Its Activity is “no”.

For `CC(=O)N[C@H](C(=O)O)C(C)(C)SN=O` (racemic) [S-Nitroso-N-acetylpenicillamine], which “Z Score” value [11] is on record?
Its value is −1.645.

And the Z score [1]?
Its Z score is −1.645.

And the Activity [3]?
The Activity was “no”.

With `COC(=O)C(C)(N)Cc1ccc(O)cc1.Cl` (racemic) [alpha-Methyl-DL-tyrosine methyl ester hydrochloride] as the molecule, how does the “Z Score” value (168 h, 3 µM) read?
Its value is 0.3703.

And the Z score (168 h, 3 µM)?
Its Z score is 0.370.

What about the Activity [5] of the same molecule?
The Activity was “no”.

Which results are given for `Br.CCCN1CCC2c3cc(O)ccc3CCC21` (racemic) [cis-(±)-8-OH-PBZI hydrobromide]?
Z score [1]: −2.297; Activity [5]: no

With `CCCCCCCCCCCCCCCC(=O)NCC(COP(=O)([O-])OCC[N+](C)(C)C)OCC` (racemic) [rac-2-Ethoxy-3-hexadecanamido-1-propylphosphocholine] as the molecule, how does the “Z Score” value (168 h, 3 µM) read?
Its value is −1.269.

What about the Z score (168 h, 3 µM) of the same molecule?
The Z score was −1.269.

What about the Activity [2] of the same molecule?
The Activity was “no”.

What does the source list for `CCCCCCCCCCCCCCCCCC(=O)NCC(COP(=O)([O-])OCC[N+](C)(C)C)OCC` (racemic) [rac-2-Ethoxy-3-octadecanamido-1-propylphosphocholine]?
Z Score [9]: −1.112; Z score [1]: −1.112; Activity [2]: no

For `O=C(O)[C@H]1C[C@H](C(=O)O)N1` (relative stereo) [trans-Azetidine-2,4-dicarboxylic acid], which “Z Score” value (168 h, 3 µM) is on record?
The value was −0.3491.

What about the Z score (168 h, 3 µM) of the same molecule?
The Z score was −0.349.

What about the Activity [8] of the same molecule?
Its Activity is “no”.

How did the “Z Score” value [11] turn out when `CN(C)CCC(c1ccc(Br)cc1)c1ccccn1.O=C(O)/C=C\C(=O)O` (single isomer, unassigned; (+)) [(+)-Brompheniramine maleate] was run?
Its value is −3.976.

And the Z score [1]?
Its Z score is −3.976.

What about the Activity [5] of the same molecule?
Its Activity is “yes”.

What does the source list for `CC(C)(C)C1(O)CCN2CC3c4ccccc4CCc4cccc(c43)C2C1.Cl` (single isomer, unassigned; (+)) [(+)-Butaclamol hydrochloride]?
Z Score [11]: −11.27; Z score [1]: −11.274; Activity [5]: yes
